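Each compound was tested at five concentrations against cells in 96-well plates for 48 hours. GI50 is the concentration that inhibits growth by half. TGI: total growth inhibition.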
Key:
Assay in all cases: NCI tumour cell line growth inhibition, 48 h
CCRF-CEM leukemia = system: CCRF-CEM leukemia
DU-145 prostate = system: DU-145 prostate
HOP-62 NSCLC = system: HOP-62 NSCLC
IGROV1 ovarian = system: IGROV1 ovarian
KM12 colon = system: KM12 colon
M14 melanoma = system: M14 melanoma
OVCAR-4 ovarian = system: OVCAR-4 ovarian
SK-MEL-2 melanoma = system: SK-MEL-2 melanoma
SK-MEL-28 melanoma = system: SK-MEL-28 melanoma
UACC-257 melanoma = system: UACC-257 melanoma

SMILES | GI50 (CCRF-CEM leukemia) [µM] | TGI (CCRF-CEM leukemia) [µM] | GI50 (DU-145 prostate) [µM] | TGI (DU-145 prostate) [µM] | GI50 (HOP-62 NSCLC) [µM] | TGI (HOP-62 NSCLC) [µM] | GI50 (IGROV1 ovarian) [µM] | TGI (IGROV1 ovarian) [µM] | GI50 (KM12 colon) [µM] | TGI (KM12 colon) [µM] | GI50 (M14 melanoma) [µM] | TGI (M14 melanoma) [µM] | GI50 (OVCAR-4 ovarian) [µM] | TGI (OVCAR-4 ovarian) [µM] | GI50 (SK-MEL-2 melanoma) [µM] | TGI (SK-MEL-2 melanoma) [µM] | GI50 (SK-MEL-28 melanoma) [µM] | TGI (SK-MEL-28 melanoma) [µM] | GI50 (UACC-257 melanoma) [µM] | TGI (UACC-257 melanoma) [µM]
C=C(C)C(OC)C(O)CC1(C)CC(O)CC(C)(C2CCC3OC(C4(C)CCC(Br)C(C)(C)O4)CCC3(C)O2)O1 (stereo unspecified) | 21.3 | 55.8 | 17.3 | 32 | 17.4 | 32.6 | 24 | > 57.1 | 17.5 | 36.7 | 17.4 | 32.7 | 23.1 | 44.2 | 18.1 | 36.5 | 23.6 | 50 | 20.2 | 43
C[N+](C)(C)CC(=O)N/N=C(/CC(=O)CC(C1=C(O)c2ccccc2OC1)c1ccccc1)C(=O)Nc1cccc(Cl)c1 (stereo unspecified) |  | > 100 |  | > 100 |  | > 100 |  | > 100 |  | > 100 |  | > 100 |  | > 100 |  | > 100 |  | > 100 |  | > 100
O=C1/C(=C/c2ccc(O)c(O)c2)CCC/C1=C\c1ccc(O)c(O)c1 |  | > 25.4 |  | 17.5 |  | 14.5 |  | 15.9 |  | 13.8 |  | 18.4 |  | 41.9 |  | 13.1 |  | 11.8 |  | 17.4
COc1cc2c(cc1OCCCCN1CCN(CC(=O)Nc3ccc(Cl)cc3C(=O)c3ccccc3Cl)CC1)N=CC1CCCN1C2=O (stereo unspecified) | 0.159 | 0.434 | 0.277 | 0.791 | 0.196 | 0.411 | 0.229 | 0.519 | 0.215 | 0.497 |  |  | 0.262 | 0.962 | 0.288 | 0.869 | 0.229 | 0.453 | 0.2 | 0.575
CCC(=O)[C@H](C)[C@@H](OC(=O)[C@H](C)CC)[C@H](C)[C@H]1OC(CC)=C(C)C(=O)[C@@H]1C | 19.7 | 44.8 | 23.4 | 68.4 | 21.2 | 48.1 | 17.1 | 46.7 | 19.5 | 52.5 | 22.8 | 72.5 | 29 | > 100 | 24.6 | 50.2 | 21.2 | 57.4 | 33.2 | > 100
CN1CCCCC1CCN1c2ccccc2Sc2ccc(Cl)cc21 (stereo unspecified) | 3.81 | 13.5 | 5.5 | 17.6 | 10.1 | 24.2 | 3.24 | 10.6 | 2.77 | 7.38 | 2.02 | 3.97 | 3.66 | 16 | 3.06 | 8.97 | 2.23 | 5.9 | 2.45 | 5.52
O=C(Nc1ccc(F)cc1)Nc1ccc(Cl)c([N+](=O)[O-])c1 | 3.3 | > 100 | 4.44 | 21.2 | 3.78 | 15.9 | 4.77 | 18.6 | 3.3 | 13.8 | 3.14 | 12.3 | 2.78 | 14 | 2.32 | 5.83 | 3.77 | 14.2 | 2.73 | 8.85
COc1cccc(-c2cc(-c3cccc(NS(C)(=O)=O)c3)nc(N)c2C#N)c1O | 0.153 | > 100 | 0.182 | > 100 | 0.135 | > 100 | 0.0577 | > 86.3 | 0.107 | > 100 | 0.0837 | > 100 | 0.61 | > 100 | 0.132 | > 100 | 0.571 | > 100 | 0.471 | > 100
C=CCO[C@H]1CO[C@H]2[C@@H]1OC[C@@H]2Oc1ccc(Nc2ccnc(Nc3ccc(O[C@H]4CO[C@H]5[C@@H]4OC[C@@H]5OCC=C)c(Cl)c3)n2)cc1Cl | 0.652 | 3.43 | 1.69 | 3.13 | 1.93 | 4.01 | 1.79 | 3.54 | 1.65 | 3.08 | 1.77 | 3.4 | 1.57 | 2.93 | 2.29 | 5.31 | 1.73 | 3.16 | 1.83 | 3.69
Nc1ccccc1C#C/C=C\C#Cc1ccccc1OC(F)(F)F | 1.11 | 23.2 | 4.81 | 29.9 | 6.1 | 20.6 | 5.64 | 39.9 | 4.78 | 27.3 | 3.86 | 17.8 | 11.6 | 42 | 6.38 | 29 | 7.55 | 36.8 | 12 | 50.7
C=CCOc1ccc2c(C)cc(=O)oc2c1C |  | > 100 |  | > 100 |  | > 100 |  | > 100 |  | > 100 |  | > 100 |  | > 100 |  | > 100 |  | > 100 |  | > 100
CO/C(=N\N=C\c1ccc(C(F)(F)F)cc1)c1ccncc1 |  | > 10 |  | > 10 |  | > 10 |  |  |  | > 10 |  | > 10 |  | > 10 |  | > 10 |  |  |  | > 10
COC([CH2][Hg][n]1cnc2c1c(=O)n(C)c(=O)n2C)CN1C(=O)c2ccccc2S1(=O)=O (stereo unspecified) |  |  | > 100 | > 100 | > 100 | > 100 | > 100 | > 100 | > 100 | > 100 | > 100 | > 100 | > 100 | > 100 | > 100 | > 100 | > 100 | > 100 | > 100 | > 100
COc1cc(/C=N\NC(=O)CN2CCN(c3cc4c(cc3F)c(=O)c(C(=O)N/N=C/c3cc(OC)c(OC)c(OC)c3)cn4C3CC3)CC2)cc(OC)c1OC | 0.316 | > 100 | 0.495 | > 20 | 0.374 | 21 | 0.365 | 11.8 |  |  | 0.429 | > 49.5 | 0.379 | > 100 | 0.204 | 0.513 | 0.359 | > 19.8 | 0.36 | 

— PubChem BioAssay (NCI)
